Target: HIS-TGFβR1 T204D (Homo sapiens (Human), UniProt P36897, T204D)
Assay: TGFβR1 HIS T204D HTRF assay (labeled small molecule probe, anti-HIS detection antibody)
Format: binding
Conditions: 1 nM HIS-TGFβR1 T204D, probe at Kd, 1 hour at room temperature, eleven concentrations

Sequence of HIS-TGFβR1 T204D (P36897 34-503 T204D): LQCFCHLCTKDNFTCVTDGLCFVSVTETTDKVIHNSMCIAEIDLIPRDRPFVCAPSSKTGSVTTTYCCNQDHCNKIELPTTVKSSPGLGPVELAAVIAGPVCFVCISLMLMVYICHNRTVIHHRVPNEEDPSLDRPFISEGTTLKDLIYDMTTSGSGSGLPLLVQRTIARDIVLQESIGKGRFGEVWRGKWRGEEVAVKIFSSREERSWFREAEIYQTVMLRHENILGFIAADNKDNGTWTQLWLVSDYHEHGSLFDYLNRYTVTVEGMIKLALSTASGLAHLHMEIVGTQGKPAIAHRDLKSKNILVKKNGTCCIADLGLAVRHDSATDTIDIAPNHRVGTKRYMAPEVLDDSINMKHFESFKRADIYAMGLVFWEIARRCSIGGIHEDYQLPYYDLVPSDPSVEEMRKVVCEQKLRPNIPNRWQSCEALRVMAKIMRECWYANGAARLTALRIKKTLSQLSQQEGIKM

IC50 | SMILES
2.5 nM | COC(=O)Nc1cc(Nc2nc(-c3cccc(C(F)(F)F)n3)nc3[nH]ccc23)ccn1 [Example 30, methyl (4-((2-(6-(trifluoromethyl)pyridin-2-yl)-7H-pyrrolo[2,3-d]pyrimidin-4-yl)amino)pyridin-2-yl)carbamate]
0.37 nM | CC(=O)Nc1nccc(Nc2nc(-c3cccc(C(F)F)n3)nc3[nH]ccc23)c1F [Example 31, N-(4-((2-(6-(difluoromethyl)pyridin-2-yl)-7H-pyrrolo[2,3-d]pyrimidin-4-yl)amino)-3-fluoropyridin-2-yl)acetamide]
0.77 nM | O=C(CN1CCOCC1)Nc1cc(Nc2nc(-c3cccc(C(F)(F)F)n3)nc3[nH]ccc23)ccn1 [Example 32, 2-morpholino-N-(4-((2-(6-(trifluoromethyl)pyridin-2-yl)-7H-pyrrol[2,3-d]pyrimidin-4-yl)amino)pyridin-2-yl)acetamide]
0.25 nM | Cc1cccc(-c2nc(Nc3ccncc3F)c3c(C)c[nH]c3n2)n1 [Example 33, N-(3-fluoropyridin-4-yl)-5-methyl-2-(6-methylpyridin-2-yl)-7H-pyrrolo[2,3-d]pyrimidin-4-amine]
4.5 nM | Cc1c[nH]c2nc(-c3cccc(C(F)(F)F)n3)nc(Nc3ccncc3F)c12 [Example 34, N-(3-fluoropyridin-4-yl)-5-methyl-2-(6-(trifluoromethyl)pyridin-2-yl)-7H-pyrrolo[2,3-d]pyrimidin-4-amine]
1.4 nM | CC(C)(O)CNCc1c[nH]c2nc(-c3cccc(C(F)F)n3)nc(Nc3ccncc3F)c12 [Example 35, 1-(((2-(6-(difluoromethyl)pyridin-2-yl)-4-((3-fluoropyridin-4-yl)amino)-7H-pyrrolo[2,3-d]pyrimidin-5-yl)methyl)amino)-2-methylpropan-2-ol]
1.7 nM | CC(=O)Nc1nccc(Nc2nc(-c3cccc(C(F)(F)F)n3)nc3[nH]ccc23)c1F [Example 36, N-[3-fluoro-4-({2-[6-(trifluoromethyl)pyridin-2-yl]-7H-pyrrolo[2,3-d]pyrimidin-4-yl}amino)pyridin-2-yl]acetamide]
0.87 nM | Cc1cnccc1Nc1nc(-c2cccc(C(F)(F)F)n2)nc2[nH]ccc12 [Example 37, 3-methyl-N-{2-[6-(trifluoromethyl)pyridin-2-yl]-7H-pyrrolo[2,3-d]pyrimidin-4-yl}pyridin-4-amine]
0.59 nM | CN(c1ccncc1)c1nc(-c2cccc(C(F)(F)F)n2)nc2[nH]ccc12 [Example 38, N-methyl-N-{2-[6-(trifluoromethyl)pyridin-2-yl]-7H-pyrrolo[2,3-d]pyrimidin-4-yl}pyridin-4-amine]
0.64 nM | FC(F)(F)c1cccc(-c2nc(Nc3ccncc3C(F)(F)F)c3cc[nH]c3n2)n1 [Example 39, 3-(trifluoromethyl)-N-{2-[6-(trifluoromethyl)pyridin-2-yl]-7H-pyrrolo[2,3-d]pyrimidin-4-yl}pyridin-4-amine]
0.6 nM | FC(F)(F)c1cccc(-c2nc(Nc3ccncc3Cl)c3cc[nH]c3n2)n1 [Example 40, 3-chloro-N-{2-[6-(trifluoromethyl)pyridin-2-yl]-7H-pyrrolo[2,3-d]pyrimidin-4-yl}pyridin-4-amine]
0.87 nM | O=C(Nc1cc(Nc2nc(-c3cccc(C(F)(F)F)n3)nc3[nH]ccc23)ccn1)C1CC1 [Example 41, N-[4-({2-[6-(trifluoromethyl)pyridin-2-yl]-7H-pyrrolo[2,3-d]pyrimidin-4-yl}amino)pyridin-2-yl]cyclopropanecarboxamide]
1.7 nM | COc1cnccc1Nc1nc(-c2cccc(C(F)(F)F)n2)nc2[nH]ccc12 [Example 42, 3-methoxy-N-{2-[6-(trifluoromethyl)pyridin-2-yl]-7H-pyrrolo[2,3-d]pyrimidin-4-yl}pyridin-4-amine]
2.6 nM | CC(=O)Nc1cc(Nc2nc(-c3cccc(C(F)F)n3)nc3[nH]cc(CNCC(C)(C)O)c23)c(F)cn1 [Example 44, N-[4-({2-[6-(difluoromethyl)pyridin-2-yl]-5-{[(2-hydroxy-2-methylpropyl)amino]methyl}-7H-pyrrolo[2,3-d]pyrimidin-4-yl}amino)-5-fluoropyridin-2-yl]acetamide]
1 nM | Cc1cnccc1Nc1nc(-c2ccc(F)c(C)n2)nc2[nH]ccc12 [Example 45, N-[2-(5-fluoro-6-methylpyridin-2-yl)-7H-pyrrolo[2,3-d]pyrimidin-4-yl]-3-methylpyridin-4-amine]
0.79 nM | COc1cnccc1Nc1nc(-c2ccc(F)c(C)n2)nc2[nH]ccc12 [Example 46, N-[2-(5-fluoro-6-methylpyridin-2-yl)-7H-pyrrolo[2,3-d]pyrimidin-4-yl]-3-methoxypyridin-4-amine]
1.4 nM | Cc1nc(-c2nc(Nc3ccnc(NC(=O)C4CC4)c3)c3cc[nH]c3n2)ccc1F [Example 47, N-(4-{[2-(5-fluoro-6-methylpyridin-2-yl)-7H-pyrrolo[2,3-d]pyrimidin-4-yl]amino}pyridin-2-yl)cyclopropanecarboxamide]
4.3 nM | CN(c1ccncc1)c1nc(-c2cccc(NS(C)(=O)=O)n2)nc2[nH]ccc12 [Example 48, N-(6-{4-[methyl(pyridin-4-yl)amino]-7H-pyrrolo[2,3-d]pyrimidin-2-yl}pyridin-2-yl)methanesulfonamide]
2.2 nM | CS(=O)(=O)Nc1cccc(-c2nc(Nc3ccncc3Cl)c3cc[nH]c3n2)n1 [Example 49, N-(6-{4-[(3-chloropyridin-4-yl)amino]-7H-pyrrolo[2,3-d]pyrimidin-2-yl}pyridin-2-yl)methanesulfonamide]

Reference: patent US10399987B2, “TGF beta receptor antagonists” (BRISTOL-MYERS SQUIBB COMPANY, priority 2015, dated 2019)
